Laboratory results published in patent EP0567026B1, “4,1-Benzoxazepin derivatives as squalene synthase inhibitors and their use in the treatment of hypercholesteremia and as fungicides” (TAKEDA CHEMICAL INDUSTRIES, LTD., priority 1992, dated 1993).

System: hepatic cholesterogenesis
Test: In vivo cholesterogenesis in the liver ([14C]acetate incorporation into digitonin-precipitable hepatic sterols)
Settings: male Sprague-Dawley rats on 5%-cholestylamine diet for 4 days; dose of 30 mg/kg as suspension in 0.5%-methylcellulose; [14C]acetate i.v. 1 hour after administration, livers removed one hour later; compared to the control group
Method: Six-week-old, male Sprague-Dawley rats were given 5%-cholestylamine as a dietary admixture for 4 days. They were administered compound at a dose of 30 mg/kg as a suspension of 0.5%-methylcellulose solution and were intravenously given 2 uCi of [^14C]acetate 1 hour after the administration. One hour later, rats were sacrificed and livers were removed. Hepatic sterols were extracted with petroleum ether after saponification, and the radioactivity of digitonin-precipitable fraction was measured. Example 1-(4) inhibited the hepatic cholesterogenesis by 38% compared to the control group given only […] solution.

For `CCOC(=O)CC1OC(c2ccccc2Cl)c2cc(Cl)ccc2N(CC(C)(C)C)C1=O` (stereo not shown) [Example 1-(4)], the “inhibited the hepatic cholesterogenesis” value was 38%.
